Measurements reported in ChEMBL document CHEMBL3885861, “Open TG-GATES”.

Species: Rattus norvegicus
Assay: Open TG-GATES - Regimen: Daily Repeat
Format: toxicity, organism-based, Sprague-Dawley
Parameters: regimen Daily Repeat, gender Male, age 6 weeks
Conditions: in vivo, po, 150 mg/kg, route gavage, dose level High; for APTT / Bas / Eos / Fbg / Hb / Ht / Lym / MCH / MCHC / MCV / Mono / Neu / PT / Plat / RBC / Ret / WBC: tissue Blood; for KIDNEY_L / KIDNEY_R / KIDNEY_TOTAL: tissue Kidney; for LIVER: tissue Liver; for A/G / ALP / ALT / AST / BUN / CRE / Ca / Cl / DBIL / GLC / IP / K / LDH / Na / PL / RALB / TBIL / TC / TG / TP / gamma-GTP: tissue Plasma

O=c1ccc2ccccc2o1 [COUMARIN] gave a TERMINAL_BW (72 h, time 3 day) of 168.7 g, an APTT (72 h, time 3 day) of 14.2 s and a Bas (72 h, time 3 day) of 0%. It also gave an Eos (72 h, time 3 day) of 1%, a Fbg (72 h, time 3 day) of 193.7 mg/dL and a Hb (72 h, time 3 day) of 14.6 g/dL. For the same compound, the Ht (72 h, time 3 day) was 43.8%, the Lym (72 h, time 3 day) was 80.8% and the MCH (72 h, time 3 day) was 21 pg. For the same compound, the MCHC (72 h, time 3 day) was 33.2%, the MCV (72 h, time 3 day) was 63.2 fL and the Mono (72 h, time 3 day) was 4.8%. The Neu (72 h, time 3 day) was 13.6%, the PT (72 h, time 3 day) was 11.5 s and the Plat (72 h, time 3 day) was 117.7 x10_4/uL. The RBC (72 h, time 3 day) was 693.6 x10_4/ul, the Ret (72 h, time 3 day) was 3.5% and the WBC (72 h, time 3 day) was 97.2 x10_2/uL. For the same compound, the KIDNEY_L (72 h, time 3 day) was 0.8 g, the KIDNEY_R (72 h, time 3 day) was 0.8 g and the KIDNEY_TOTAL (72 h, time 3 day) was 1.6 g. For the same compound, the LIVER (72 h, time 3 day) was 9.5 g, the A/G (72 h, time 3 day) was 2.2 and the ALP (72 h, time 3 day) was 1111.8 IU/L. For the same compound, the ALT (72 h, time 3 day) was 54.6 IU/L, the AST (72 h, time 3 day) was 72 IU/L and the BUN (72 h, time 3 day) was 16 mg/dL. The CRE (72 h, time 3 day) was 0.5 mg/dL, the Ca (72 h, time 3 day) was 10.9 mg/dL and the Cl (72 h, time 3 day) was 106 meq/L. The DBIL (72 h, time 3 day) was 0.072 mg/dL, the GLC (72 h, time 3 day) was 178.2 mg/dL and the IP (72 h, time 3 day) was 8 mg/dL. It also gave a K (72 h, time 3 day) of 4.8 meq/L, an LDH (72 h, time 3 day) of 162 IU/L and a Na (72 h, time 3 day) of 139.6 meq/L. For the same compound, the PL (72 h, time 3 day) was 168 mg/dL, the RALB (72 h, time 3 day) was 3.8 g/dL and the TBIL (72 h, time 3 day) was 0.3 mg/dL. The TC (72 h, time 3 day) was 95.2 mg/dL, the TG (72 h, time 3 day) was 30.2 mg/dL and the TP (72 h, time 3 day) was 5.6 g/dL. For the same compound, the gamma-GTP (72 h, time 3 day) was 1.8 IU/L, the TERMINAL_BW ([…], time 7 day) was 202.2 g and the TERMINAL_BW ([…], time 14 day) was 250.7 g. It also gave a TERMINAL_BW ([…], time 28 day) of 305.5 g, an APTT ([…], time 7 day) of 16.5 s and a Bas ([…], time 7 day) of 0%. For the same compound, the Eos ([…], time 7 day) was 1%, the Fbg ([…], time 7 day) was 236 mg/dL and the Hb ([…], time 7 day) was 13.3 g/dL. The Ht ([…], time 7 day) was 40.2%, the Lym ([…], time 7 day) was 81.2% and the MCH ([…], time 7 day) was 20.5 pg. The MCHC ([…], time 7 day) was 33%, the MCV ([…], time 7 day) was 62.2 fL and the Mono ([…], time 7 day) was 3.6%. The Neu ([…], time 7 day) was 14.2%, the PT ([…], time 7 day) was 11.5 s and the Plat ([…], time 7 day) was 121.9 x10_4/uL. It also gave an RBC ([…], time 7 day) of 646.6 x10_4/ul, a Ret ([…], time 7 day) of 5.4% and a WBC ([…], time 7 day) of 152.2 x10_2/uL. It also gave an APTT ([…], time 14 day) of 17.3 s, a Bas ([…], time 14 day) of 0% and an Eos ([…], time 14 day) of 1%. It also gave a Fbg ([…], time 14 day) of 238 mg/dL, a Hb ([…], time 14 day) of 13.5 g/dL and a Ht ([…], time 14 day) of 40.8%. The Lym ([…], time 14 day) was 77.6%, the MCH ([…], time 14 day) was 20 pg and the MCHC ([…], time 14 day) was 33.1%. The MCV ([…], time 14 day) was 60.5 fL, the Mono ([…], time 14 day) was 7.8% and the Neu ([…], time 14 day) was 13.8%. For the same compound, the PT ([…], time 14 day) was 11.4 s, the Plat ([…], time 14 day) was 129.9 x10_4/uL and the RBC ([…], time 14 day) was 674.8 x10_4/ul. For the same compound, the Ret ([…], time 14 day) was 5.1%, the WBC ([…], time 14 day) was 131.3 x10_2/uL and the APTT ([…], time 28 day) was 16.9 s. It also gave a Bas ([…], time 28 day) of 0%, an Eos ([…], time 28 day) of 1.2% and a Fbg ([…], time 28 day) of 229.8 mg/dL. The Hb ([…], time 28 day) was 14.7 g/dL, the Ht ([…], time 28 day) was 44.2% and the Lym ([…], time 28 day) was 79.4%. It also gave an MCH ([…], time 28 day) of 18.4 pg, an MCHC ([…], time 28 day) of 33.2% and an MCV ([…], time 28 day) of 55.3 fL. For the same compound, the Mono ([…], time 28 day) was 5.4%, the Neu ([…], time 28 day) was 14.2% and the PT ([…], time 28 day) was 11.4 s. For the same compound, the Plat ([…], time 28 day) was 120.2 x10_4/uL, the RBC ([…], time 28 day) was 800.8 x10_4/ul and the Ret ([…], time 28 day) was 2.9%. It also gave a WBC ([…], time 28 day) of 123.8 x10_2/uL, a KIDNEY_L ([…], time 7 day) of 0.9 g and a KIDNEY_R ([…], time 7 day) of 0.9 g. It also gave a KIDNEY_TOTAL ([…], time 7 day) of 1.8 g, a KIDNEY_L ([…], time 14 day) of 1.1 g and a KIDNEY_R ([…], time 14 day) of 1.1 g. The KIDNEY_TOTAL ([…], time 14 day) was 2.2 g, the KIDNEY_L ([…], time 28 day) was 1.2 g and the KIDNEY_R ([…], time 28 day) was 1.2 g. For the same compound, the KIDNEY_TOTAL ([…], time 28 day) was 2.4 g, the LIVER ([…], time 7 day) was 11.5 g and the LIVER ([…], time 14 day) was 14.4 g. The LIVER ([…], time 28 day) was 16.2 g, the A/G ([…], time 7 day) was 2 and the ALP ([…], time 7 day) was 807 IU/L. It also gave an ALT ([…], time 7 day) of 43.8 IU/L, an AST ([…], time 7 day) of 54.4 IU/L and a BUN ([…], time 7 day) of 13 mg/dL. It also gave a CRE ([…], time 7 day) of 0.6 mg/dL, a Ca ([…], time 7 day) of 10.9 mg/dL and a Cl ([…], time 7 day) of 104.2 meq/L. For the same compound, the DBIL ([…], time 7 day) was 0.058 mg/dL, the GLC ([…], time 7 day) was 180.2 mg/dL and the IP ([…], time 7 day) was 7.2 mg/dL. It also gave a K ([…], time 7 day) of 4.9 meq/L, an LDH ([…], time 7 day) of 181 IU/L and a Na ([…], time 7 day) of 139.2 meq/L. The PL ([…], time 7 day) was 182.2 mg/dL, the RALB ([…], time 7 day) was 4.1 g/dL and the TBIL ([…], time 7 day) was 0.2 mg/dL. The TC ([…], time 7 day) was 101.4 mg/dL, the TG ([…], time 7 day) was 33.4 mg/dL and the TP ([…], time 7 day) was 6.2 g/dL. It also gave a gamma-GTP ([…], time 7 day) of 1.4 IU/L, an A/G ([…], time 14 day) of 1.9 and an ALP ([…], time 14 day) of 789 IU/L. It also gave an ALT ([…], time 14 day) of 52.8 IU/L, an AST ([…], time 14 day) of 62.8 IU/L and a BUN ([…], time 14 day) of 16.8 mg/dL. It also gave a CRE ([…], time 14 day) of 0.6 mg/dL, a Ca ([…], time 14 day) of 11 mg/dL and a Cl ([…], time 14 day) of 106.4 meq/L. It also gave a DBIL ([…], time 14 day) of 0.072 mg/dL, a GLC ([…], time 14 day) of 181 mg/dL and an IP ([…], time 14 day) of 6.8 mg/dL. For the same compound, the K ([…], time 14 day) was 4.9 meq/L, the LDH ([…], time 14 day) was 188 IU/L and the Na ([…], time 14 day) was 139.8 meq/L. It also gave a PL ([…], time 14 day) of 198.6 mg/dL, an RALB ([…], time 14 day) of 4 g/dL and a TBIL ([…], time 14 day) of 0.2 mg/dL. It also gave a TC ([…], time 14 day) of 106.4 mg/dL, a TG ([…], time 14 day) of 49.4 mg/dL and a TP ([…], time 14 day) of 6.2 g/dL. The gamma-GTP ([…], time 14 day) was 1.2 IU/L, the A/G ([…], time 28 day) was 1.7 and the ALP ([…], time 28 day) was 689.6 IU/L. It also gave an ALT ([…], time 28 day) of 67.2 IU/L, an AST ([…], time 28 day) of 63 IU/L and a BUN ([…], time 28 day) of 19.6 mg/dL. The CRE ([…], time 28 day) was 0.6 mg/dL, the Ca ([…], time 28 day) was 11.2 mg/dL and the Cl ([…], time 28 day) was 106.6 meq/L. The DBIL ([…], time 28 day) was 0.046 mg/dL, the GLC ([…], time 28 day) was 177.6 mg/dL and the IP ([…], time 28 day) was 6.8 mg/dL. The K ([…], time 28 day) was 4.6 meq/L, the LDH ([…], time 28 day) was 147.2 IU/L and the Na ([…], time 28 day) was 139.2 meq/L. For the same compound, the PL ([…], time 28 day) was 222.8 mg/dL, the RALB ([…], time 28 day) was 4.4 g/dL and the TBIL ([…], time 28 day) was 0.2 mg/dL. The TC ([…], time 28 day) was 121.8 mg/dL, the TG ([…], time 28 day) was 70.8 mg/dL and the TP ([…], time 28 day) was 6.9 g/dL. For the same compound, the gamma-GTP ([…], time 28 day) was 0.6 IU/L.
